These results are taken from patent US20250346574A1, “PYRIDINYL SUBSTITUTED OXOISOINDOLINE COMPOUNDS FOR THE TREATMENT OF CANCER” (Bristol-Myers Squibb Company, priority 2021, published 2025).

The structures appear in SMILES notation. Where only a bound is given, the exact number is not on record here.

Chain of Helios (Q9UKS7 whole entry): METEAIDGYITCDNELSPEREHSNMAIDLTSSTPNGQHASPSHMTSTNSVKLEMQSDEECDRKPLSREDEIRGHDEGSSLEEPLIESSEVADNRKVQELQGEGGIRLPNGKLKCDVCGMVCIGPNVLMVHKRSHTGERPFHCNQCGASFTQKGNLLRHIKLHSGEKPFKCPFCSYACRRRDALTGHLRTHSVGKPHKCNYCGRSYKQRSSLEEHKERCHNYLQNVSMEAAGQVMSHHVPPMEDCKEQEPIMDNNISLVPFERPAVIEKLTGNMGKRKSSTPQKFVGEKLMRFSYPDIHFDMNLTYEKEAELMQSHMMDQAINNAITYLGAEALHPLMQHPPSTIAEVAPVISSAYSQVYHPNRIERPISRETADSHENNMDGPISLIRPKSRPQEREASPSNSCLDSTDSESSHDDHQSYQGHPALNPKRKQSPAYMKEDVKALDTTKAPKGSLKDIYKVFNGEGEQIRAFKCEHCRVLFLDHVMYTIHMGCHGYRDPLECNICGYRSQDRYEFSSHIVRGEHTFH
Chain of Helios (Q96SW2 whole entry): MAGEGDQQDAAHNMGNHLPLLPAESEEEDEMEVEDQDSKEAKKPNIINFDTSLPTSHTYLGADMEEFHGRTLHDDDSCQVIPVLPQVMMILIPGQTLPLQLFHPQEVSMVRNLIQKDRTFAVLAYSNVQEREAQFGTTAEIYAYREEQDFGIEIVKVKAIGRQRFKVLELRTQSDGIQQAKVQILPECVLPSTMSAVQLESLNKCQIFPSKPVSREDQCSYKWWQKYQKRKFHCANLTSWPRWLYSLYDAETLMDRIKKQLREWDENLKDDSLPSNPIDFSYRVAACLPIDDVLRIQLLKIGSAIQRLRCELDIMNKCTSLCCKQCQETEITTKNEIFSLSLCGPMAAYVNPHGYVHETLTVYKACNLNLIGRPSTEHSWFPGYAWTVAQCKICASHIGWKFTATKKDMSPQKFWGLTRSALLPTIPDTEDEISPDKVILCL
Chain of Helios (Q16531 whole entry partner): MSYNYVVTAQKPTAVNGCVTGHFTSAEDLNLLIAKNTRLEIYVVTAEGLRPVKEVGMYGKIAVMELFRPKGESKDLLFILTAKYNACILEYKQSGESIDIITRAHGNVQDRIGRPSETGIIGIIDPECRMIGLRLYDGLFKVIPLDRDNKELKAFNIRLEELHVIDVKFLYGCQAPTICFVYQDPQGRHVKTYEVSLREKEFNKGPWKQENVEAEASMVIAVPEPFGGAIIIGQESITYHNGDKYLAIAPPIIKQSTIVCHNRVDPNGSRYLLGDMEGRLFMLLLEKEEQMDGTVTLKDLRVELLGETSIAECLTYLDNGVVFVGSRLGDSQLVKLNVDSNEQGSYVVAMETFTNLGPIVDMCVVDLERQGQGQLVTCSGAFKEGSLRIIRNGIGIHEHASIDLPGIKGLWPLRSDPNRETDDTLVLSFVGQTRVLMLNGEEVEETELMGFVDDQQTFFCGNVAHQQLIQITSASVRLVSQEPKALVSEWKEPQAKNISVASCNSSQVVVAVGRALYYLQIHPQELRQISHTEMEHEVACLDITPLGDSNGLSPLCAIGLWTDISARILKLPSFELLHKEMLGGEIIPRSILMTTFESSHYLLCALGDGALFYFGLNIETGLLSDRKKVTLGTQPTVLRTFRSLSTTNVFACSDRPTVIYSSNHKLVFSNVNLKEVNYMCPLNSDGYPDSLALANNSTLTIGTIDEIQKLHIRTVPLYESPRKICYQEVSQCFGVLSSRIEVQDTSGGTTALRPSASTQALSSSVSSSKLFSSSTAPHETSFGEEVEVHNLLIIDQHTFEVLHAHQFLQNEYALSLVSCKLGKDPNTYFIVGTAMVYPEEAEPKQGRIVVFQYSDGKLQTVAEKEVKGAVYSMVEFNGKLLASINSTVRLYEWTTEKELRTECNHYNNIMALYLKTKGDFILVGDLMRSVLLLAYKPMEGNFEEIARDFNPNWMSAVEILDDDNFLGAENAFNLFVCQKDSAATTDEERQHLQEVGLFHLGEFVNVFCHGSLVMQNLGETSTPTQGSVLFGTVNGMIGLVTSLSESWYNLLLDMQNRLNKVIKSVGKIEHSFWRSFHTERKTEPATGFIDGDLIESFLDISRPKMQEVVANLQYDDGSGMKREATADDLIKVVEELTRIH

The assay concerns the target Helios (Homo sapiens, UniProt Q96SW2+Q9UKS7). The experiment in a line: Helios Human T Regulatory Cells Degradation Assay. The arrangement: fluorescently labelled antibodies against Helios in 1× Permeabilization buffer; endogenous in cells; host or cells: cryopreserved human T regulatory cells. It counts as cell-based. The following applies: cryopreserved human T regulatory cells, incubated 20 hours, Helios-APC antibody staining, flow cytometry; read-out: hTreg Helios DC50. The procedure:
Cryopreserved human T regulatory cells were thawed in RPMI+10% FBS+20 ng/mL IL-2. After being spun at 1200 rpm for 5 mins, the cells were resuspended in RPMI+10% FBS+20 ng/mL and rested at 37° C. with 5% CO2 for 3 hours. […] Cell cultures were incubated for 20 hours at 37° C. and 5% CO2. In order to facilitate analysis, cell cultures were spun down at 1200 rpm for 5 minutes and the supernatant was discarded using an EL406 plate washer. After washing three times with 70 μL PBS, cell pellets were resuspended in 50 μL of near IR viability staining solution (Life Technologies, Cat #L34975) and incubated for 30 minutes on ice protected from light. Cells were washed three times with 70 μL PBS+0.5% BSA using an EL406 plate washer. […] Subsequently, 30 μL of 1× Permeabilization buffer was added prior to centrifuging the cells and discarding the supernatant. Stained cells were resuspended in 30 μL of flow cytometry staining buffer (PBS+0.5% BSA) and analyzed using an Intellicyt Ique Plus flow cytometer.
In general terms: A flow cytometer gives signals particle by particle.
With `CN(C1CN(Cc2ccnc(-c3ccc4c(c3)CN([C@H]3CCC(=O)NC3=O)C4=O)c2)C1)S(=O)(=O)c1ccccc1` [Example 162, (S)—N-(1-((2-(2-(2,6-dioxopiperidin-3-yl)-1-oxoisoindolin-5-yl)pyridin-4-yl)methyl)azetidin-3-yl)-N-methylbenzenesulfonamide], the DC50 – broadly, the concentration giving 50% degradation – was 28.7 nM.
As for `CN(CC1CN(Cc2ccnc(-c3ccc4c(c3)CN([C@H]3CCC(=O)NC3=O)C4=O)c2)C1)C(=O)c1ccccc1` [Example 164, (S)—N-((1-((2-(2-(2,6-dioxopiperidin-3-yl)-1-oxoisoindolin-5-yl)pyridin-4-yl)methyl)azetidin-3-yl)methyl)-N-methylbenzamide], the figure is 15.9 nM; as for `O=C1CCC(N2Cc3cc(-c4cc(Cn5cccn5)ccn4)ccc3C2=O)C(=O)N1` (stereo not shown) [Example 165, 3-(5-(4-((1H-pyrazol-1-yl)methyl)pyridin-2-yl)-1-oxoisoindolin-2-yl)piperidine-2,6-dione], 178 nM; as for `Cc1cnn(Cc2ccnc(-c3ccc4c(c3)CN([C@H]3CCC(=O)NC3=O)C4=O)c2)c1` [Example 166, (S)-3-(5-(4-((4-methyl-1H-pyrazol-1-yl)methyl)pyridin-2-yl)-1-oxoisoindolin-2-yl)piperidine-2,6-dione], at least 10000 nM.
For `Cc1cnc(-c2ccc3c(c2)CN(C2CCC(=O)NC2=O)C3=O)cc1CN1CCC(C(C)(C)O)CC1` (stereo not shown) [Example 167, 3-(5-(4-((4-(2-hydroxypropan-2-yl)piperidin-1-yl)methyl)-5-methylpyridin-2-yl)-1-oxoisoindolin-2-yl)piperidine-2,6-dione], the 50% degradation concentration (DC50) is 1 nM.
As for `Cc1cnc(-c2ccc3c(c2)CN(C2CCC(=O)NC2=O)C3=O)cc1CN1CC2(CCC2)C1` (stereo not shown) [Example 168, 3-(5-(4-((2-azaspiro[3.3]heptan-2-yl)methyl)-5-methylpyridin-2-yl)-1-oxoisoindolin-2-yl)piperidine-2,6-dione], the figure is 3.7 nM.
With `Cc1cnc(-c2ccc3c(c2)CN(C2CCC(=O)NC2=O)C3=O)cc1CN1CCC(C2CC2)C1` (stereo not shown) [Example 169, 3-(5-(4-((3-cyclopropylpyrrolidin-1-yl)methyl)-5-methylpyridin-2-yl)-1-oxoisoindolin-2-yl)piperidine-2,6-dione], the DC50 is 4 nM.
Take `COc1c(CN2CCC(C(C)(C)O)CC2)ccnc1-c1ccc2c(c1)CN(C1CCC(=O)NC1=O)C2=O` (stereo not shown) [Example 172, 3-(5-(4-((4-(2-hydroxypropan-2-yl)piperidin-1-yl)methyl)-3-methoxypyridin-2-yl)-1-oxoisoindolin-2-yl)piperidine-2,6-dione]: the half-maximal degradation concentration (DC50) is 5.2 nM.
As to `COc1c(CN2CCC(C3CC3)C2)ccnc1-c1ccc2c(c1)CN(C1CCC(=O)NC1=O)C2=O` (stereo not shown) [Example 173, 3-(5-(4-((3-cyclopropylpyrrolidin-1-yl)methyl)-3-methoxypyridin-2-yl)-1-oxoisoindolin-2-yl)piperidine-2,6-dione], the DC50 was 0.4 nM.
Regarding `COc1cc(CN2CC3(CCC3)C2)cc(-c2ccc3c(c2)CN(C2CCC(=O)NC2=O)C3=O)n1` (stereo not shown) [Example 174, 3-(5-(4-((2-azaspiro[3.3]heptan-2-yl)methyl)-6-methoxypyridin-2-yl)-1-oxoisoindolin-2-yl)piperidine-2,6-dione], the half-maximal degradation concentration (DC50) was 1.5 nM.
As to `COc1cc(CN2CCC(C3CC3)C2)cc(-c2ccc3c(c2)CN(C2CCC(=O)NC2=O)C3=O)n1` (stereo not shown) [Example 175, 3-(5-(4-((3-cyclopropylpyrrolidin-1-yl)methyl)-6-methoxypyridin-2-yl)-1-oxoisoindolin-2-yl)piperidine-2,6-dione], the 50% degradation concentration (DC50) came out at 0.2 nM.
`O=C1CCC(N2Cc3cc(-c4cc(CN5CC6(CCC6)C5)c(C(F)(F)F)cn4)ccc3C2=O)C(=O)N1` (stereo not shown) [Example 180, 3-(5-(4-((2-azaspiro[3.3]heptan-2-yl)methyl)-5-(trifluoromethyl)pyridin-2-yl)-1-oxoisoindolin-2-yl)piperidine-2,6-dione]: the half-maximal degradation concentration (DC50) is at least 10000 nM.
`COCC1CN(Cc2cc(-c3ccc4c(c3)CN(C3CCC(=O)NC3=O)C4=O)ncc2C(F)(F)F)C1` (stereo not shown) [Example 181, 3-(5-(4-((3-(methoxymethyl)azetidin-1-yl)methyl)-5-(trifluoromethyl)pyridin-2-yl)-1-oxoisoindolin-2-yl)piperidine-2,6-dione]: the DC50 was at least 10000 nM.
Take `O=C1CCC(N2Cc3cc(-c4nccc(CN5CCC(OC(F)(F)F)C5)c4F)ccc3C2=O)C(=O)N1` (stereo not shown) [Example 183, 3-(5-(3-fluoro-4-((3-(trifluoromethoxy)pyrrolidin-1-yl)methyl)pyridin-2-yl)-1-oxoisoindolin-2-yl)piperidine-2,6-dione]: the DC50 is at least 10000 nM.
As to `O=C1CCC(N2Cc3cc(-c4nccc(CN5CC[C@H](F)C5)c4F)ccc3C2=O)C(=O)N1` (stereo partly drawn) [Example 184, 3-(5-(3-fluoro-4-(((S)-3-fluoropyrrolidin-1-yl)methyl)pyridin-2-yl)-1-oxoisoindolin-2-yl)piperidine-2,6-dione], the DC50 was 3160 nM.
Turning to `O=C1CCC(N2Cc3cc(-c4nccc(CN5CCC(O)(C(F)(F)F)C5)c4F)ccc3C2=O)C(=O)N1` (stereo not shown) [Example 185, 3-(5-(3-fluoro-4-((3-hydroxy-3-(trifluoromethyl)pyrrolidin-1-yl)methyl)pyridin-2-yl)-1-oxoisoindolin-2-yl)piperidine-2,6-dione], the half-maximal degradation concentration (DC50) was at least 10000 nM.
Consider `O=C1CCC(N2Cc3cc(-c4nccc(CN5Cc6cccc(F)c6C5)c4F)ccc3C2=O)C(=O)N1` (stereo not shown) [Example 186, 3-(5-(3-fluoro-4-((4-fluoroisoindolin-2-yl)methyl)pyridin-2-yl)-1-oxoisoindolin-2-yl)piperidine-2,6-dione], for which the half-maximal degradation concentration (DC50) was at least 10000 nM.
As to `O=C1CCC(N2Cc3cc(-c4nccc(CN5Cc6ccc(Cl)cc6C5)c4F)ccc3C2=O)C(=O)N1` (stereo not shown) [Example 187, 3-(5-(4-((5-chloroisoindolin-2-yl)methyl)-3-fluoropyridin-2-yl)-1-oxoisoindolin-2-yl)piperidine-2,6-dione], the DC50 was at least 10000 nM.
As for `CC(C)(C)NC(=O)C1CCCN1Cc1ccnc(-c2ccc3c(c2)CN(C2CCC(=O)NC2=O)C3=O)c1` (stereo not shown) [Example 188, N-(tert-butyl)-1-((2-(2-(2,6-dioxopiperidin-3-yl)-1-oxoisoindolin-5-yl)pyridin-4-yl)methyl)pyrrolidine-2-carboxamide], the figure is 28.7 nM; as for `COCC1N(Cc2ccnc(-c3ccc4c(c3)CN(C3CCC(=O)NC3=O)C4=O)c2)CC12CCC2` (stereo not shown) [Example 189, 3-(5-(4-((1-(methoxymethyl)-2-azaspiro[3.3]heptan-2-yl)methyl)pyridin-2-yl)-1-oxoisoindolin-2-yl)piperidine-2,6-dione], 6.4 nM; as for `O=C1CCC(N2Cc3cc(-c4cc(CN5CCC[C@H]5C(=O)NC5CCCCC5)ccn4)ccc3C2=O)C(=O)N1` (stereo partly drawn) [Example 190, (2S)—N-cyclohexyl-1-((2-(2-(2,6-dioxopiperidin-3-yl)-1-oxoisoindolin-5-yl)pyridin-4-yl)methyl)pyrrolidine-2-carboxamide], 49.7 nM.
Take `O=C1CCC(N2Cc3cc(-c4cc(CN5CC[C@@H]5COc5ccc(Cl)nc5)ccn4)ccc3C2=O)C(=O)N1` (stereo partly drawn) [Example 191, 3-(5-(4-(((R)-2-(((6-chloropyridin-3-yl)oxy)methyl)azetidin-1-yl)methyl)pyridin-2-yl)-1-oxoisoindolin-2-yl)piperidine-2,6-dione]: the DC50 came out at 53.6 nM.
Consider `O=C1CCC(N2Cc3cc(-c4cc(CN5CCC5COc5ccc(F)cc5)ccn4)ccc3C2=O)C(=O)N1` (stereo not shown) [Example 192, 3-(5-(4-((2-((4-fluorophenoxy)methyl)azetidin-1-yl)methyl)pyridin-2-yl)-1-oxoisoindolin-2-yl) piperidine-2,6-dione], for which the half-maximal degradation concentration (DC50) was 7.7 nM.
With `CC(C)(C)OC(=O)NC[C@@H]1CCCN1Cc1ccnc(-c2ccc3c(c2)CN(C2CCC(=O)NC2=O)C3=O)c1` (stereo partly drawn) [Example 195, tert-butyl (((2S)-1-((2-(2-(2,6-dioxopiperidin-3-yl)-1-oxoisoindolin-5-yl)pyridin-4-yl)methyl)pyrrolidin-2-yl)methyl)carbamate], the DC50 turned out to be 23.5 nM.
Regarding `CC(C)OCC1CCN1Cc1ccnc(-c2ccc3c(c2)CN(C2CCC(=O)NC2=O)C3=O)c1` (stereo not shown) [Example 196, 3-(5-(4-((2-(isopropoxymethyl)azetidin-1-yl)methyl)pyridin-2-yl)-1-oxoisoindolin-2-yl)piperidine-2,6-dione], the DC50 came to 2.6 nM.
On to `CC1(F)CCN(Cc2ccnc(-c3ccc4c(c3)CN(C3CCC(=O)NC3=O)C4=O)c2F)CC1` (stereo not shown) [Example 198, 3-(5-(3-fluoro-4-((4-fluoro-4-methylpiperidin-1-yl)methyl)pyridin-2-yl)-1-oxoisoindolin-2-yl)piperidine-2,6-dione], for which the DC50 is 51.9 nM.
As for `CC(=O)N1CCCCN1Cc1ccnc(-c2ccc3c(c2)CN(C2CCC(=O)NC2=O)C3=O)c1F` (stereo not shown) [Example 199, 3-(5-(4-((2-acetyltetrahydropyridazin-1(2H)-yl)methyl)-3-fluoropyridin-2-yl)-1-oxoisoindolin-2-yl)piperidine-2,6-dione], the figure is at least 10000 nM.
Consider `CC(C)(C)OC(=O)N1CC2CCCN(Cc3ccnc(-c4ccc5c(c4)CN(C4CCC(=O)NC4=O)C5=O)c3F)C2C1` (stereo not shown) [Example 204, tert-butyl 1-((2-(2-(2,6-dioxopiperidin-3-yl)-1-oxoisoindolin-5-yl)-3-fluoropyridin-4-yl)methyl) octahydro-6H-pyrrolo[3,4-b]pyridine-6-carboxylate], for which the half-maximal degradation concentration (DC50) is at least 10000 nM.
